Structures can show the parent of a compound that is named as a salt.
Columns and labels:
[1] = Solubility in water / dissolution buffer; format: physicochemical; details: compared to hydrated naltrexone base; isotonic phosphate buffer
[2] = Drug release from drug-loaded biodegradable vehicles at 37° C. in isotonic phosphate buffer; format: physicochemical; details: compared to hydrated naltrexone base, 25% polymer (i.v. 0.64) with pure PEG 400 or 50/50% PEG 400/TEC, drug 20% w/w
[3] = hydrochloride salt compared to the base; cited from earlier work
[4] = Drug release from drug-loaded biodegradable vehicles at 37° C. in isotonic phosphate buffer; format: physicochemical; details: for drug release: drug 20% w/w
Protocol: A polymer (25% w/w of 50/50 lactide-co-glycolide copolymer, inherent viscosity of 0.59) was dissolved in a minimum quantity of acetone. […] The resulting solutions were stirred to yield uniform mixtures. Acetone was evaporated from the mixtures by heating at 60-75° C. with constant stirring. The biodegradable vehicles were kept in a vacuum oven at 60-75° C. overnight to ensure complete removal of acetone. […] Oxytetracycline base (20% w/w) was added to each biodegradable vehicle and mixed thoroughly to ensure uniform distribution of the drug in the formulations. Drug release from the drug-loaded biodegradable vehicles was performed at 37° C. in isotonic phosphate buffer containing sodium sulfite as an antioxidant. […]
A polymer (25% w/w of 50/50 lactide-co-glycolide copolymer, inherent viscosity of 0.59) was dissolved in a minimum quantity of acetone. Either pure polyethylene glycol 400, triethyl citrate (TEC) or acetyl triethyl citrate (ATEC) was added to the polymer solution. The resulting solutions were stirred to yield uniform mixtures. Acetone was evaporated from the mixtures by heating at 60-75° C. with constant stirring. The biodegradable vehicles were kept in a vacuum oven at 60-75° C. overnight to ensure complete removal of acetone. […] Oxytetracycline base (20% w/w) was added to each biodegradable vehicle and mixed thoroughly to ensure uniform distribution of the drug in the formulations. Drug release from the drug-loaded biodegradable vehicles was performed at 37° C. in isotonic phosphate buffer containing sodium sulfite as an antioxidant. Drug release was fastest from formulations prepared with PEG 400, and slowest from those prepared with ATEC.
The resulting solutions were stirred to yield uniform mixtures. Acetone was evaporated from the mixtures by heating at 60-75° C. with constant stirring. The biodegradable vehicles were kept in a vacuum oven at 60-75° C. overnight to ensure complete removal of acetone. […] Oxytetracycline base (20% w/w) was added to each biodegradable vehicle and mixed thoroughly to ensure uniform distribution of the drug in the vehicles. Drug release from the drug-loaded biodegradable vehicles was performed at 37° C. in isotonic phosphate buffer containing sodium sulfite as an antioxidant. Faster drug release was observed from formulations prepared with a 16.67% polymer and 83.3% of plasticizer blends of varying compositions (polymer to plasticizer ratio of 1:5) compared to those prepared from formulations with polymer to plasticizer ratios of […] (i.e. […]). This is because increasing the polymer concentration in the formulations from 16.67% to 33.3% increased the viscosity of the formulations and decreased the drug diffusion from the formulations. […]
The solutions were stirred to yield a uniform mixture. Acetone was evaporated from the mixtures by heating at 60-75° C. with constant stirring. The biodegradable vehicles were kept in a vacuum oven at 60-75° C. overnight to ensure complete removal of acetone. […] Either hydrated naltrexone base (20% w/w) or naltrexone hydrochloride (20% w/w) was added to the biodegradable vehicles and mixed thoroughly to ensure uniform distribution of the drugs in the formulations. Drug release from the drug-loaded biodegradable vehicles was performed at 37° C. in isotonic phosphate buffer. […] This is because the solubility of the naltrexone hydrochloride in the dissolution buffer is much greater than that of the hydrated naltrexone base.
A similar drug release study was performed with formulations containing either 20% oxytetracycline hydrochloride or 20% oxytetracycline base. […] The solutions were stirred to yield a uniform mixture. Acetone was evaporated from the mixtures by heating at 60-75° C. with constant stirring. The biodegradable vehicles were kept in a vacuum oven at 60-75° C. overnight to ensure complete removal of acetone. […]

In the case of `O=C1CC[C@@]2(O)[C@H]3Cc4ccc(O)c5c4[C@@]2(CCN3CC2CC2)[C@H]1O5` [naltrexone hydrochloride], the “solubility in the dissolution buffer” value [1] is reported as “much greater” and the drug release [2] is reported as “considerably faster”.
In the case of `CN(C)[C@@H]1C(O)=C(C(N)=O)C(=O)[C@@]2(O)C(O)=C3C(=O)c4c(O)cccc4[C@@](C)(O)[C@H]3[C@H](O)[C@@H]12` [oxytetracycline hydrochloride], the aqueous solubility [3] is given as “greater”.
In the case of `CN(C)[C@@H]1C(=O)C(C(N)=O)=C(O)[C@@]2(O)C(=O)C3=C(O)c4c(O)cccc4[C@@](C)(O)[C@H]3[C@H](O)[C@@H]12` [oxytetracycline base], the drug release ([4]; blend of 75% PEG 400 and 25% TEC compared to 50/50% PEG 400/TEC at similar polymer to plasticizer ratios) is reported as “considerably faster”, the drug release ([4]; formulations prepared from TEC, 25% w/w polymer, compared among PEG 400, TEC, ATEC) is reported as “Intermediate” and the drug release ([4]; formulations prepared with ATEC, 25% w/w polymer, compared among PEG 400, TEC, ATEC) is reported as “slowest”. For the same compound, the drug release ([4]; formulations prepared with PEG 400, 25% w/w polymer, compared among PEG 400, TEC, ATEC) was “fastest”, the drug release ([4]; on decreasing inherent viscosity of polymer from 0.76 to 0.15, PEG 400) was “dramatically increased” and the drug release ([4]; on decreasing polymer in the formulations from 25% to 10% (PEG 400 75% to 90%), 37° C.) was “dramatically increased”. For the same compound, the drug release ([4]; on increasing PEG 400 from 0% PEG 400/100% TEC to 100% PEG 400/0% TEC, 25% w/w polymer, 37° C.) was “faster”, the “cumulative amount of drug released” value ([4]; on increasing drug in the formulations from 10 to 30% w/w, 25% w/w 50/50 PLGA (i.v. 0.59) + PEG 400, 37° C., isotonic phosphate buffer with sodium sulfite) was “increased” and the drug release ([4]; polymer to plasticizer ratio 1:5 (16.67% polymer) compared to 1:3, PEG 400/TEC blends) was “Faster”.

— patent publication US6432438B1, “Biodegradable vehicle and filler” (priority 1997, dated 2002)
